According to the supplement of paper PMC10307832:

How the values were obtained:
Assay in all cases: relative viability (nuclei count vs DMSO), 5 days (fraction); higher = more cells survive
Midostaurin + Phenformin = compound: CO[C@@H]1[C@H](N(C)C(=O)c2ccccc2)C[C@H]2O[C@]1(C)n1c3ccccc3c3c4c(c5c6ccccc6n2c5c31)C(=O)NC4 [Midostaurin] + N=C(N)NC(=N)NCCc1ccccc1 [Phenformin] (partner 250 µM)
How it was run: (§1)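 Medians of duplicate plates are given as relative viability. That measure is the nuclei count in treated wells divided by the count in vehicle wells. Counts were taken on 4× images of lung cancer cell lines in 1536-well plates, 5 days after pin-tool dosing the day after seeding with one drug alone or a fixed anchor-drug dose plus five library-drug doses (not always all listed) in √10 steps.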

[1] = compound: COc1cc(-c2nn([C@H]3CC[C@H](N4CCN(C(C)=O)CC4)CC3)c3ncnc(N)c23)ccc1NC(=O)c1cc2ccccc2n1C + Cc1nc(Nc2ncc(C(=O)Nc3c(C)cccc3Cl)s2)cc(N2CCN(CCO)CC2)n1 [Dasatinib] (partner 0.075 µM)
How it was run: as §1

Midostaurin + Tozasertib = compound: CO[C@@H]1[C@H](N(C)C(=O)c2ccccc2)C[C@H]2O[C@]1(C)n1c3ccccc3c3c4c(c5c6ccccc6n2c5c31)C(=O)NC4 [Midostaurin] + Cc1cc(Nc2cc(N3CCN(C)CC3)nc(Sc3ccc(NC(=O)C4CC4)cc3)n2)n[nH]1 [Tozasertib] (partner 0.1 µM)
How it was run: as §1

Midostaurin + Decitabine = compound: CO[C@@H]1[C@H](N(C)C(=O)c2ccccc2)C[C@H]2O[C@]1(C)n1c3ccccc3c3c4c(c5c6ccccc6n2c5c31)C(=O)NC4 [Midostaurin] + Nc1ncn([C@H]2C[C@H](O)[C@@H](CO)O2)c(=O)n1 [Decitabine] (partner 2 µM)
How it was run: as §1

Midostaurin + Bortezomib = compound: CO[C@@H]1[C@H](N(C)C(=O)c2ccccc2)C[C@H]2O[C@]1(C)n1c3ccccc3c3c4c(c5c6ccccc6n2c5c31)C(=O)NC4 [Midostaurin] + CC(C)C[C@H](NC(=O)[C@H](Cc1ccccc1)NC(=O)c1cnccn1)B(O)O [Bortezomib] (partner 0.002 µM)
How it was run: as §1

Cell Line	relative viability (Midostaurin + Phenformin; first compound 0.01 µM)	relative viability (Midostaurin + Phenformin; first compound 0.03162 µM)	relative viability (Midostaurin + Phenformin; first compound 0.1 µM)	relative viability (Midostaurin + Phenformin; first compound 0.3162 µM)	relative viability ([1]; first compound 0.0128 µM)	relative viability ([1]; first compound 0.04048 µM)	relative viability ([1]; first compound 0.128 µM)	relative viability ([1]; first compound 1.28 µM)	relative viability (Midostaurin + Tozasertib; first compound 0.01 µM)	relative viability (Midostaurin + Tozasertib; first compound 0.03162 µM)	relative viability (Midostaurin + Tozasertib; first compound 0.1 µM)	relative viability (Midostaurin + Tozasertib; first compound 0.3162 µM)	relative viability (Midostaurin + Decitabine; first compound 0.01 µM)	relative viability (Midostaurin + Decitabine; first compound 0.03162 µM)	relative viability (Midostaurin + Decitabine; first compound 0.1 µM)	relative viability (Midostaurin + Decitabine; first compound 0.3162 µM)	relative viability (Midostaurin + Bortezomib; first compound 0.01 µM)	relative viability (Midostaurin + Bortezomib; first compound 0.03162 µM)	relative viability (Midostaurin + Bortezomib; first compound 0.1 µM)	relative viability (Midostaurin + Bortezomib; first compound 0.3162 µM)
NCI-H1915	0.35	0.348	0.352	0.352	0.313	0.278	0.271	0.333	0.46	0.435	0.404	0.412	0.264	0.26	0.255	0.255	0.936	1	0.968	0.993
NCI-H1975	0.425	0.418	0.39	0.397	0.345	0.294	0.357	0.24	0.732	0.763	0.716	0.37	0.368	0.446	0.366	0.363	0.325	0.513	0.446	0.322
NCI-H1993	0.476	0.498	0.477	0.508	0.5	0.499	0.428	0.599	0.595	0.606	0.545	0.599	0.541	0.607	0.693	0.576	1.03	1.15	1.08	1.11
NCI-H2009	0.428	0.464	0.48	0.372	0.298	0.267	0.31	0.382	0.711	0.707	0.563	0.426	0.426	0.353	0.351	0.361	0.882	0.981	0.942	0.809
NCI-H2023	0.448	0.432	0.4	0.285	0.559	0.668	0.524	0.663	0.408	0.316	0.29	0.171	0.226	0.273	0.223	0.201	0.974	0.961	0.963	0.567
NCI-H2085	0.718	0.627	0.749	0.583	0.237	0.246	0.249	0.219	0.807	0.764	0.663	0.582	0.54	0.525	0.607	0.523	0.968	0.963	1.08	0.946
NCI-H2087	0.457	0.474	0.445	0.399	1.11		0.733	0.857	0.249	0.303	0.225	0.207	0.276	0.323	0.357	0.194	0.827	0.717	0.542	0.841
NCI-H2126	0.519	0.467	0.565	0.564	0.635	0.609	0.626	0.506	0.861	0.8	0.844	0.857	0.549	0.644	0.612	0.613	1.07	1.08	1.03	1.12
NCI-H2347	0.254	0.384	0.337	0.248	0.262		0.333	0.308	0.494	0.553	0.616	0.506	0.599	0.584	0.567	0.611	0.842	0.95	0.956	0.976
NCI-H2405	0.415	0.441	0.377	0.491	0.252	0.216	0.192	0.179	0.752	0.677	0.742	0.585	0.721	0.8	0.774	0.778	1.02	0.985	0.979	1.01
NCI-H3122	0.376	0.369	0.372	0.363	0.854		0.775	0.809	0.365	0.283	0.386	0.336	0.394	0.395	0.531	0.551	0.991	0.968	1.04	1.02
PC-3 [JPC-3]	0.497	0.474	0.491	0.517	0.985	0.881	0.922	1.03	0.886	0.809	0.865	0.867	0.703	0.815	0.839	0.94	0.891	0.734	0.683	0.85
PC-14	0.603	0.717	0.522	0.52	0.243	0.265	0.282	0.278	0.616	0.574	0.598	0.491	0.184	0.204	0.227	0.114	0.839	0.713	0.811	0.815
RERF-LC-KJ	0.454	0.376	0.391	0.379	0.816	0.76	0.772	0.794	0.47	0.464	0.433	0.321	0.748	0.75	0.724	0.658	1.16	1.18	1.16	1.23
SK-LU-1	0.521	0.54	0.49	0.421	0.201	0.236	0.211	0.243	0.337	0.449	0.278	0.202	0.704	0.724	0.595	0.597	1.15	1.31	1.36	1.19
SW 1573	0.379	0.462	0.41	0.308	0.496	0.743	0.627	0.612	0.177	0.187	0.173	0.157	0.52	0.741	0.524	0.476	0.966	0.988	1.15	1.05
